# From ChEMBL document CHEMBL5346923, “Novel pyridinium cationic pleuromutilin analogues overcoming bacterial multidrug resistance” (Eur J Med Chem, 2023)
# Columns and labels:
# Assay type in all cases: functional
# Enterococcus = experiment: Antibacterial activity against vancomycin-resistant Enterococcus ATCC 700221 assessed as inhibition of bacterial growth measured after 24 hrs by MH broth based assay
# Bacillus subtilis = experiment: Antibacterial activity against Bacillus subtilis ATCC 6633 assessed as inhibition of bacterial growth measured after 24 hrs by MH broth based assay
# Staphylococcus aureus [1] = experiment: Antibacterial activity against Staphylococcus aureus ATCC 29213 assessed as inhibition of bacterial growth measured after 24 hrs by MH broth based assay
# Staphylococcus aureus [2] = experiment: Antibacterial activity against methicillin-resistant Staphylococcus aureus ATCC 43300 assessed as inhibition of bacterial growth measured after 24 hrs by MH broth based assay
# Streptococcus pneumoniae = experiment: Antibacterial activity against Streptococcus pneumoniae ATCC 49619 assessed as inhibition of bacterial growth measured after 24 hrs by MH broth based assay
# [3] = tested on: Staphylococcus epidermidis; experiment: Antibacterial activity against methicillin-resistant Staphylococcus epidermidis ATCC 51625 assessed as inhibition of bacterial growth measured after 24 hrs by MH broth based assay
# Klebsiella pneumoniae = experiment: Antibacterial activity against Klebsiella pneumonia CMCC (B) 46117 assessed as inhibition of bacterial growth measured after 24 hrs by MH broth based assay
# Escherichia coli [4] = experiment: Antibacterial activity against Escherichia coli ATCC 25922 assessed as inhibition of bacterial growth measured after 24 hrs by MH broth based assay
# Proteus = experiment: Antibacterial activity against Proteus CMCC (B) 49027 assessed as inhibition of bacterial growth measured after 24 hrs by MH broth based assay
# Escherichia coli [5] = experiment: Antibacterial activity against Escherichia coli MG1655 assessed as inhibition of bacterial growth measured after 24 hrs by MH broth based assay
# Escherichia coli [6] = experiment: Antibacterial activity against Escherichia coli MG1655 harbouring acrB gene assessed as inhibition of bacterial growth measured after 24 hrs by MH broth based assay
SMILES,MIC (Enterococcus) [µg/mL],MIC (Bacillus subtilis) [µg/mL],MIC (Staphylococcus aureus [1]) [µg/mL],MIC (Staphylococcus aureus [2]) [µg/mL],MIC (Streptococcus pneumoniae) [µg/mL],MIC [3] [µg/mL],MIC (Klebsiella pneumoniae) [µg/mL],MIC (Escherichia coli [4]) [µg/mL],MIC (Proteus) [µg/mL],MIC (Escherichia coli [5]) [µg/mL],MIC (Escherichia coli [6]) [µg/mL]
C=C[C@]1(C)C[C@@H](OC(=O)CSc2cc[n+](CCCC)cc2)[C@]2(C)[C@H](C)CC[C@]3(CCC(=O)[C@H]32)[C@@H](C)[C@@H]1O.[Br-],16,64,0.25,0.25,0.063,0.125,32,64,> 64,64,1
C=C[C@]1(C)C[C@@H](OC(=O)CSc2cc[n+](CC(=O)N3CCCC3)cc2)[C@]2(C)[C@H](C)CC[C@]3(CCC(=O)[C@H]32)[C@@H](C)[C@@H]1O.[I-],64,> 64,4,4,1,2,64,64,> 64,64,4
C=C[C@]1(C)C[C@@H](OC(=O)CSc2cc[n+](CC(=O)N3CCS(=O)(=O)CC3)cc2)[C@]2(C)[C@H](C)CC[C@]3(CCC(=O)[C@H]32)[C@@H](C)[C@@H]1O.[I-],64,> 64,8,8,2,4,> 64,> 64,> 64,32,16
C=C[C@]1(C)C[C@@H](OC(=O)CSc2cc[n+](CC(=O)N3CCCCC3)cc2)[C@]2(C)[C@H](C)CC[C@]3(CCC(=O)[C@H]32)[C@@H](C)[C@@H]1O.[I-],64,> 64,0.25,0.25,0.125,0.125,64,64,> 64,64,2
C=C[C@]1(C)C[C@@H](OC(=O)CSc2cc[n+](CCCCC(=O)O)cc2)[C@]2(C)[C@H](C)CC[C@]3(CCC(=O)[C@H]32)[C@@H](C)[C@@H]1O.[I-],64,> 64,8,16,2,4,> 64,> 64,> 64,64,16
C=C[C@]1(C)C[C@@H](OC(=O)CSc2cc[n+](Cc3cccc(NC(=O)OC(C)(C)C)c3)cc2)[C@]2(C)[C@H](C)CC[C@]3(CCC(=O)[C@H]32)[C@@H](C)[C@@H]1O.[I-],16,64,0.5,0.5,< 0.031,0.125,64,64,> 64,64,4
C=C[C@]1(C)C[C@@H](OC(=O)CSc2cc[n+](CCCCCCCCCC)cc2)[C@]2(C)[C@H](C)CC[C@]3(CCC(=O)[C@H]32)[C@@H](C)[C@@H]1O.[I-],4,2,0.25,1,0.125,0.5,2,16,64,16,1
CN[C@H](CC(C)C)C(=O)N[C@H]1C(=O)N[C@@H](CC(N)=O)C(=O)N[C@H]2C(=O)N[C@H]3C(=O)N[C@H](C(=O)N[C@H](C(=O)O)c4cc(O)cc(O)c4-c4cc3ccc4O)[C@H](O)c3ccc(c(Cl)c3)Oc3cc2cc(c3O[C@@H]2O[C@H](CO)[C@@H](O)[C@H](O)[C@H]2O[C@H]2C[C@](C)(N)[C@H](O)[C@H](C)O2)Oc2ccc(cc2Cl)[C@H]1O [VANCOMYCIN],64,0.125,–,–,0.25,0.5,> 64,> 64,> 64,> 64,> 64
